# Experiments:
# Sprague Dawley rats = test: 28-day intravenous toxicity study in rats, liver histopathology (subacute hepatitis); assay type: in vivo
# Experimental: Potential toxicity of Compound 1-HCl was evaluated by intravenous administration to Sprague Dawley rats for 28 days. This study was conducted in compliance with FDA Good Laboratory Practice Standards, 21 CFR 58 and in accordance with OECD Principles of Good Laboratory Practice.
# One hundred twelve Sprague Dawley—HsD: SD rats were randomly divided into eight groups and treated with Compound 1 (“test article”) or vehicle, by intravenous administration via the lateral tail vein (slow bolus) (Table 1).
# Animals in Groups 1-4 were subjected to a complete necropsy examination. Protocol-specified necropsy procedures included the recording of organ weights (adrenals, brain, hearts, kidneys, liver, testes, ovaries, spleen, thyroids, parathyroids), examination of the external body surface, examination of all orifices, and examination of the cranial, thoracic, and abdominal cavities and their contents. Post-fixation weights for the thyroids/parathyroids were recorded. The following protocol-specified tissues were collected at necropsy: animal identification (not evaluated), abnormalities (gross findings), adrenals, aorta, brain, cecum, cervix, colon, duodenum, epidiymides, esophagus, eye with optic nerve, femur with articular surface, heart, ileum, injection site, jejunum, kidneys, lacrimal glands (exorbital), larynx, liver, lung with mainstem bronchus, mammary gland, mandibular lymph nodes, mesenteric lymph nodes, ovaries, pancreas, pituitary, prostate, rectum, salivary glands, sciatic nerve, seminal vesicles, skeletal muscle (thigh), skin, spinal cord (cervical, midthoracis, lumbar), spleen, sternum with bone marrow, stomach, testes, thymus, thyroid/parathyroid, tongue, trachea, urinary bladder, uterus, and vagina.
# On day 29, animals were weighed and sacrificed by CO2 inhalation. Protocol-specific tissues were preserved in 10% neutral buffered formalin (NBF). Protocol-requires tissues were embedded in paraffin, sectioned at approximately 5 microns, and processed to slides stained with hematoxylin and eosin (H&E). Histopathological evaluation was performed by a veterinary pathologist on all rats in Group 1 and Group 4 sacrificed on day 29, as well as for all early deaths. Livers for animals in Groups 2 and 3 were evaluated microscopically.
# [1] = system: LPS induced TNF-alpha in monocytes; test: LPS induced TNF-alpha in monocytes (TNF alpha assay); assay type: cell-based; conditions: Monocyte; compound 10 uM; 5 ng/mL LPS; read-out: Mean Percent Inhibition of TNF-alpha using 5 ng/mL LPS
# Experimental: This test is a standard methodology for assessing the anti-inflammatory activity of compounds. Table 1 provides Percent Inhibition of LPS induced TNF-alpha in monocytes data for 18 hydroxylamine compounds of the invention. Compounds at different concentrations (0, 1, 2.5 and 10 uM) were incubated with 100 ul freshly collected heparinized blood for 10 minutes. […] Following incubation with LPS, PBS was added (800 uL) and samples were spun for 10 minutes at 1500 g. TNFα protein concentrations were measured using R&D Systems high sensitivity ELISA kit. THP-1 cells (0.5×10^6 cells/mL) were incubated with the compounds (0, 1, 2.5 and 10 uM) for 3 hrs in humidified chamber, 37° C., 5% CO2, 2% FBS in RPMI medium. Cells were induced with 25 ng/mL LPS for another 3 hrs. Cells were collected and spun at 1500 g for 10 minutes. Supernatant was collected and analyzed for TNFα.
compound,measurement,setting,value
"CC1(C)CC(OC(=O)C2CC2)CC(C)(C)N1O.Cl [Compound 1, 1-Hydroxy-4-cyclopropanecarbonyloxy-2,2,6,6-tetramethylpiperidine hydrochloride]","Subacute hepatic inflammation (hepatitis) incidence, number of rats with minimal subacute hepatitis","Sprague Dawley rats; Group 2, 1.0 mg/kg/day i.v. 28 days, female rats (8 per group), vehicle Group 1 females 6/8",one
same,Subacute hepatic inflammation (hepatitis) incidence,"Sprague Dawley rats; Group 2, 1.0 mg/kg/day i.v. 28 days, male rats (8 per group), vehicle Group 1 males 8/8",not present in any
same,Subacute hepatic inflammation (hepatitis) incidence,"Sprague Dawley rats; Group 3, 2.5 mg/kg/day i.v. 28 days, female rats (8 per group), vehicle Group 1 females 6/8",not present in any
same,"Subacute hepatic inflammation (hepatitis) incidence, number of rats with minimal subacute hepatitis","Sprague Dawley rats; Group 3, 2.5 mg/kg/day i.v. 28 days, male rats (8 per group), vehicle Group 1 males 8/8",one
same,Subacute hepatic inflammation (hepatitis) incidence,"Sprague Dawley rats; Group 4, 7.5 mg/kg/day i.v. 28 days, female rats (8 per group), vehicle Group 1 females 6/8",not present in any
same,Subacute hepatic inflammation (hepatitis) incidence,"Sprague Dawley rats; Group 4, 7.5 mg/kg/day i.v. 28 days, male rats (8 per group), vehicle Group 1 males 8/8",not present in any
same,Effect on background liver inflammation (idiopathic lesion) in treated rats,"Sprague Dawley rats; Groups 2-4 (1.0-7.5 mg/kg/day i.v. 28 days), male and female rats",reduction in the incidence of this idiopathic lesion
same,inhibition at 10 µM,[1],68 ± 6%

# Source: patent US20070197593A1, “HYDROXYLAMINES AND DERIVATIVES FOR TREATMENT OF INFLAMMATORY CONDITIONS OF THE LIVER” (priority 2006, published 2007)
